Source: patent US7935726B1, “Tricyclic pyrones” (Kansas State University Research Foundation, priority 1999, dated 2011)
Like-named read-outs stand apart in the source and are kept apart here.

What was measured:
L1210 tumor cells = test: cytotoxicity to L1210 tumor cells; format: cell-based
Description: (§1) The reported procedures for the inhibitory activities of ACAT (Tomoda, H.; Nishida, H.; Masuma, R.; Cao, J.; Okuda, S.; Omura, S. J. Antibiot. 1991, 44, 136-143), CETP (Tomoda, H.; Tabata, N.; Masuma, R.; Si, S.-Y.; Omura, S. J. Antibiot. 1998, 51, 618-623; D. H. Hua et al. Tetrahedron 2003, 59, 4795-4803), L1210 tumor cells (Perchellet, E. M.; Ladesich, J. B.; Magill, M. J.; Chen, Y.; Hua, D. H.; Perchellet, J. P. Anti-Cancer Drugs 1999, 10, 489-504), and APP C99-induced cell death (Jin, L.-W.; Hua, D. H.; Shie, F.-S.; Maezawa, I.; Sopher, B.; Martin, G. M. J. Mol. Neurosci. 2002, 19, 57-61) were followed.

MC65 cells = test: protection from APP C99-induced cell death in MC65 cells; format: cell-based; conditions: for EC50: MC65 cells in the absence of tetracycline
Description: as §1, with “followed. […]” for “followed.”

[1] = target: T1, Human aldose reductase (AR) (Homo sapiens, UniProt P15121); test: human AR inhibition assay (enzyme assay, NADPH absorption at 340 nm); format: biochemical; conditions: Table 3; average of three assays; read-out: IC50, Inhibition of Human Retina Aldose Reductase
T1 construct: made in house; host or cells: E. coli
Protocol: Human aldose reductase (AR) was obtained from overexpression of the human AR gene in an E coli system and was purified by column chromatography using a talon metal affinity column and eluted with a gradient mixture of Tris, NaCl buffer and imidazole solution. The human AR inhibition assay was conducted as follows. In a sample cuvette, 25 mM of D-xylose (75 mg/mL) and 0.15 mM of reduced nicotinamide adenine dinucleotide phosphate (NADPH) (4 mg/mL), and various amount of the inhibitor [in PBS (phosphate buffer saline) solution; the concentration of the inhibitor was determined using UV spectroscopy based on εmax at λmax of the drug] in 700 uL of PBS (a solution made of 1.44 g of Na2HPO4, 0.24 g KH2PO4, 0.2 g KCl, and 8 g NaCl in 1 L of distilled water) buffer (pH=6.1) solution and 200 uL of the AR enzyme (a final volume of 1 mL was obtained). The intensity of absorption of NADPH (λmax=340 nm) was measured. When xylose is reduced to xylitol, NADPH is converted into NADP and the absorption at 340 nm decreases. When AR is inhibited by the drug, the absorption at 340 nm of NADPH remains unchanged. Each assay was repeated three times and an average IC50 value was obtained.

[2] = test system: bovine lens epithelial cells; test: toxicity in bovine lens epithelial cells; format: cell-based; conditions: up to 100 uM added to bovine lens epithelial cells
[3] = test system: N/N 1003 lens epithelial cells; test: tissue culture assay: galactitol formation from galactose in lens epithelial cells (GC/MS); format: cell-based; conditions: for inhibition at 10 µM: 10 uM inhibitor, 40 mM galactose media, lens epithelial cells, number of trials in parenthesis
Protocol: The activity of the drugs is tested in various ways, including tissue culture assays and assays testing aldose reductase inhibition. For the tissue culture assay, a lens epithelial cell line is grown in galactose with or without the drug. Cells are tested for polyol accumulation by GC/mass spectrometry. Levels of PKC are tested in homogenized cell pellets or in samples of lens, retina or sciatic nerves from treated patients. Tissue is homogenized and tested for PKCγ levels using Western blots. These procedures are described in more detail below.
The ability of the drugs to inhibit galactitol formation from galactose was also studied in N/N 1003 lens epithelial cells. Two sets of lens cells were grown in media with […] 40 mM galactose. Various concentrations of inhibitors were added initially and the cells were grown for 48 hours. The cells were lysed and galactose and galactitol were extracted out and the concentrations were determined using gas chromatography and mass spectrometry by silylating the crude extract with excess of trimethylsilyl chloride, trimethylsilyl imidazole and pyridine at 70° C. for 1 h.
40 mM galactose media was supplemented with 10 uM inhibitor and fed to lens epithelial cells for 48 hours.

PKC-γ [4] = test: galactose-fed rats: PKC-γ levels in lens and sciatic nerve (Western blot); format: in vivo, Sprague Dawley Rats; conditions: high galactose feed, 100 mg/Kg body weight per day, FIG. 3B
Protocol: In order to test for in vivo effects of ARI's, rats were fed a 40% galactose diet for 9 days and the accumulation of galactitol was measured in lens tissue. This tissue has high aldose reductase activity and the eye has a separate vasculature. Thus, if the ARI works in the lens this is a good indication that the drug works and can penetrate to most tissues.
The specific experimental details follow. […] The rats were given food supplemented with inhibitor in the morning and then given food and water ad libitum the rest of the day. They were kept on a 12-hour on and 12-hour off light cycle. After 9 days, the rats were sacrificed with an overdose of CO2 and then eyes were taken and immediately frozen on dry ice for later polyol and PKC analyses. Experiments on all rats conformed to the ARVO resolution on the Use of Animals in Research.
The lenses were removed from the enucleated eyes and weighed. They were put in 200 μL lysis buffer (50 mM Tris, 100 mM NaCl, M-Per Pierre Zwitterionic detergent, 5 mM NaF, 1 mM Na3VO4, 40 mM β-glycerophosphate, 6 μg/mL chymotrypsin, 10 μM3,4-dichlorocoumarin, 10 μM E-64, 1 μg/mL leupeptin, 1 μg/mL pepstatin A, 1 μg/mL aprotinin, 1 mM PMSF, and 5 mM EDTA (Sigma). The lenses were then ground using a tissue grinder until they were a uniformly white solution. They were then sonicated to make certain all the cells were disrupted. The mixture was then centrifuged for 20 minutes at 0° C. at […]. The supernatant was then analyzed for protein content using […] (Pierce). Equal amounts of protein were loaded and separated on a 10% SDS polyacrylamide gel. The proteins were transferred to nitrocellulose (Midwest Scientific; pore size 0.45 μm). The western was blocked with a 3% milk solution, and then mouse anti-PKC γ (1:5000) or PKC α (1:1000) antisera (Transgenic Laboratories) were applied in a 3% milk solution overnight. […]
The effects of streptozotocin induced diabetes on PKC-γ levels in rat lens have been measured. […]

[5] = pathology studies in treated rats; format: in vivo; conditions: 100 mg/Kg body weight per day, 9 days
[6] = canine study: polyol level in dog lens (GC/MS); format: in vivo, Beagle dogs
Protocol: (§2) A pilot study was conducted to determine initial toxicity and efficacy in a Beagle model. The study was conducted at the fully accredited facility at the Kansas State University Veterinary Clinic. The dogs were fed a 40% galactose diet for 6 weeks. These dogs developed cataracts. Compound 1 was administered orally at 100 mg/kg body weight/day for 6 weeks. At this dose, the polyol levels were 50% normalized (FIG. 4) and PKCγ levels were 80% normalized (FIG. 5). […] The PkC-γ levels of dogs treated with galactose is 30.8%, G+I is 84.1% and C+I is 79.7%. Additional testing at higher doses is planned to determine optimal dose for efficacy with no or low toxicity. These experiments are well within the skill and experience of one of ordinary skill in the art and can be performed without undue experimentation.

PKC-γ [7] = test: canine study: PKC-γ level of dog lens (Western blot); format: in vivo, Beagle dogs
Protocol: as §2

ACAT = test: inhibition of ACAT; format: biochemical
CETP = target: T2, CETP (Homo sapiens, UniProt P11597); test: inhibition of CETP; format: biochemical
T2 sequence (P11597 18-493): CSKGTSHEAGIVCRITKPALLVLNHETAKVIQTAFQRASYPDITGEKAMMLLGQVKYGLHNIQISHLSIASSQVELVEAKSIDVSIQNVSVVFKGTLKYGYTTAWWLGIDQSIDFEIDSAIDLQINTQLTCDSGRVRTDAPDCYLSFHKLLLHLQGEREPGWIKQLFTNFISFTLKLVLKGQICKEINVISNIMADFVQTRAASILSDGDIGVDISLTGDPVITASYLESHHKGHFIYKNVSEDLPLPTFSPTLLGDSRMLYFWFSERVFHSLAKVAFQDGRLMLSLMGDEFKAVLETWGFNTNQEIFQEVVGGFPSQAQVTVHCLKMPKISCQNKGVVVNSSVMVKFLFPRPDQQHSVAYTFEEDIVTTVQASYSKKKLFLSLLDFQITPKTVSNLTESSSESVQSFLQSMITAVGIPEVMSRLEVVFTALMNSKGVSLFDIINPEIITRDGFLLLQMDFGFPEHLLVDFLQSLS
Description: as §1
(§3) ACAT mediates the esterification of intracellular cholesterol and is believed to play a key role in lipoprotein metabolism and atherogenesis (for a review: Suckling, K. E.; Stange, E. F. J. Lipid Res. 1985, 26, 647-671). […] The inhibition of CETP with these three compounds was then studied. CETP, a hydrophobic neutral glycoprotein, mediates the transfer of cholesteryl ester from high-density lipoprotein to low-density lipoprotein (For a review: Tall, A. R. J. Lipid Res. 1993, 34, 1255-1274). […] The N-(p-nitrophenyl)aspartamide portion of 104 was attached in order to study whether 104 was a substrate of […] (For a review: VIIIa, P.; Kaufmann, S. H.; Earnshaw, W. C. Trends Biochem. Sci. 1997, 22, 388-393). […] Compound 105 is cytotoxic to L1210 tumor cells, with IC50=30 μM. Aggarwal et al., J. Chem. Soc., Perkin Trans I (1999) 3315-3321 is incorporated by reference to the extent not inconsistent with the disclosure herewith.

caspase 103 = test: in vitro caspase substrate study (release of p-nitroaniline); format: biochemical
Description: as §3

[8] = Galactosemic dogs, with inhibitor
[9] = dogs, 40% galactose diet 6 weeks, orally 100 mg/kg body weight/day for 6 weeks

For `Cc1cc2c(c(=O)o1)C=C1CC[C@@H](CC(C)n3cnc4c(N)ncnc43)C[C@@H]1O2` (mixture of isomers) [Compound 105, (5aS,7S)-7-[(1R) and (1S)-2-(N-9-Adenyl)-1-methylethyl]-3-methyl-1H,7H-5a,6,8,9-tetrahydro-1-oxopyrano[4,3-b][1]benzopyran], which IC50 (L1210 tumor cells; read-out: IC50, cytotoxic to L1210 tumor cells) is on record?
Its IC50 is 30 µM.

What about the “fold less active than 106 (EC50)” value (MC65 cells; MC65 cells) of the same compound?
The value was 20 fold.

What about the EC50 (MC65 cells) of the same compound?
Its EC50 is 3 µM.

Which IC50 [1] does the source give for `O=C(O)Cc1cc2c(c(=O)o1)C=C1CCCCC1O2` (centres unmarked) [Compound 1, {1H,7H-5a,6,8,9-Tetrahydro-1-oxopyrano[4,3-b][1]benzopyran-3-yl}acetic acid] here?
The IC50 was 0.002 µM.

And the toxicity [2]?
Its toxicity is “no toxicity was found”.

What about the “% galactitol” value ([3]; 1 uM compound 1, 40 mM galactose, 48 hours) of the same compound?
Its value is 80%.

And the “% galactitol” value ([3]; 10 uM compound 1, 40 mM galactose, 48 hours)?
The value was 30%.

What about the “concentration of galactitol relative to galactose (GC/MS, FIG. 1B)” value ([3]; 10 uM, 40 mM galactose, 48 hours) of the same compound?
Its value is “decreases the concentration of galactitol relative to galactose”.

What about the IC50 ([3]; Epithelial cell) of the same compound?
Its IC50 is 6 µM.

What about the inhibition at 10 µM ([3]; Epithelial cell, 48 hours) of the same compound?
The inhibition at 10 µM was 80 ± 10%.

And the “PKC-γ levels in sciatic nerve cells” value (PKC-γ [4])?
The value was “normalized”.

And the “toxicity to the rats (pathology studies)” value [5]?
Its value is “not toxic to the rats”.

What about the “Galactitol (polyol) (GC/MS, dog lens)” value [6, 8] of the same compound?
Its value is 27.3%.

And the “Galactose (GC/MS, dog lens)” value [6, 8]?
The value was 72.7%.

What about the polyol levels normalized [6, 9] of the same compound?
Its polyol levels normalized is 50%.

And the “PKC-γ level of dog lens (read-out of intensities, FIG. 5)” value (PKC-γ [7]; control with inhibitor 1 (C+I))?
Its value is 79.7%.

What about the PKCγ levels normalized (PKC-γ [7]; [9]) of the same compound?
Its PKCγ levels normalized is 80%.

What about the “PKC-γ level of dog lens (read-out of intensities, FIG. 5)” value (PKC-γ [7]; galactose and inhibitor 1 (G+I)) of the same compound?
Its value is 84.1%.

What about the water solubility (water solubility) of the same compound?
The water solubility was “water soluble”.

For `O=C(O)C(O)Cc1cc2c(c(=O)o1)C(O)C1CCCCC1O2` (centres unmarked) [Compound 2, 2-Hydroxy-3-{1H,7H-5a,6,8,9,10,11-hexahydro-10-hydroxy-1-oxopyrano[4,3-b][1]benzopyran-3-yl}-propanoic acid], which IC50 [1] is on record?
Its IC50 is 0.02 µM.

And the toxicity [2]?
Its toxicity is “no toxicity was found”.

And the inhibition at 10 µM ([3]; Epithelial cell, 48 hours)?
Its inhibition at 10 µM is less than 10%.

What about the water solubility (water solubility) of the same compound?
Its water solubility is “water soluble”.

What does the source list for `C=C(C)[C@H]1CCC2=Cc3c(cc(CC(=O)N[C@@H](CC(=O)O)C(=O)Nc4ccc([N+](=O)[O-])cc4)oc3=O)O[C@H]2C1` [Compound 104]?
IC50 (ACAT): 168 µM; IC50 (CETP): > 180 µM; protection of MC65 cells from death (in words) (MC65 cells; MC65 cells conditionally expressing partial APP fusion protein, absence of tetracycline): protected from death; EC50 (MC65 cells): 2 µM; substrate of caspase 103 (release of p-nitroaniline) (caspase 103): not a substrate

Which IC50 (L1210 tumor cells; Mus musculus, L1210, Table 9, read-out: C50, L1210 Leukemic Cells) does the source give for `CC(=O)OCC1(C)C(OC(C)=O)CCC2(C)C1CC(OC(C)=O)C1(C)Oc3cc(-c4cccnc4)oc(=O)c3C(O)C21` (centres unmarked) [Pyripyropene A, reference compound] here?
The IC50 was greater than 100 µM.
